45 compounds from patent US20240307409A1, “ARGININE METHYLTRANSFERASE INHIBITOR AND USE THEREOF” (Cytosinlab Therapeutics Co., Ltd., priority 2021, published 2024) can be followed below.

Structures are written as SMILES.

One assay has as its target PRMT1 (Homo sapiens, UniProt Q99873). Nature of the assay: PRMT1 enzyme activity test. The class given is biochemical. To be noted: 0.5 nM PRMT1, 3H-SAM, peptide. On the procedure:
PRMT1 enzyme activity test were performed in a buffer prepared on the same day 5 consisting of 10 mMTirs-HCl (pH=8.0), 0.01% Tween-20 and 1 mM DTT. The compounds were prepared to the highest inhibitor concentration ultimately required in the 100× reaction with 100% DMSO and then transferred to one well of a 384-well Echo plate (Echo-eligible 384-well polypropylene microplates 2.0, transparent, flat-bottomed) and sequentially diluted in the next well with a 3-fold dilution of 100% DMSO, and so on, with a total of 10 concentrations based on Precision. 100% DMSO was added to two empty wells to serve as control well without compound and control well without enzyme in the same 384-well Echo plate. 250 nL of compound was transferred from each well of the 384-well Echo plate to a 384-well assay plate (384-well polypropylene storage microplate) via the Echo 550 liquid processor. For wells with compounds and control well without compound, a mixture (15 uL) containing PRMT1 enzyme was added to the 384-well assay plate. For control wells without enzyme, the mixture containing the assay buffer (15 uL) was added instead. The compounds were allowed to incubate with PRMT1 for 15 minutes at room temperature, and then a mixture containing ^3H-SAM and peptide (10 uL) was added to start the reaction (final volume=25 uL). The final concentrations of the components were as follows: 0.5 nM for PRMT1, 0.25 uM for ^3H-SAM, 0.1 uM for the peptide, and 1% DMSO. After 120 min of incubation, the assay was terminated by the addition of non-radiolabeled SAM (5 uL) to a final concentration of 125 uM, which diluted 3H-SAM to a level at which its incorporation into the peptide substrate was no longer detected. 25 μL of the reaction solution from the 384-well assay plate was then transferred to a 384-well detection plate (Streptavidin FlashPlate HTS PLUS, high volume, 384 wells). The biotinylated peptide was allowed to bind to the surface of the antibiotic protein streptavidin for at least 60 minutes at room temperature. The Flashplate was then washed three times with 0.1% Tween-20 in a BioTek plate washer. Plates were read on a microplate counter (MicroBeta2) to measure the amount of ^3H-labeled peptide bound to the surface of the detection plate, measured in counts per minute (cpm).
The raw data were copied from the Reader and the inhibition values were calculated in Excel by Equation (1), Equation (1): Inh %=(CPMmax−CPMcmpd)/(CPMmax−CPMmin)*100, wherein the Max signal was obtained from the enzyme-substrate interaction and the Min signal was obtained from the substrate. IC50 values were obtained by fitting the data through equation (2) using XLFit add-in for Excel version […]. Equation (2): Y=Bottom+(Top-Bottom)/(1+((IC50/X)[…])), wherein, Y represents inhibition percentage and X represents compound concentration.

The next assay concerns Toledo cells. Nature of the assay: Toledo cell proliferation inhibition assay. The class given is cell-based. To be noted: Homo sapiens, Toledo, 144 h; six-day assay, CellTiter-Glo. The procedure:
• A. Purpose: to determine the effects of compounds on Toledo cells through a six-day cell proliferation assay. • B. Reagents and materials: • 1. Cell culture medium: RPMI 1640+10% FBS • 2. 384-well cell culture plate (Corning, item #3764) • 3. 0.4% Taipan Blue Staining Solution (Thermo Fisher, item #T10282) • 4. cell counting plate (Thermo Fisher, item #C10228) • 5. 50 ml reagent reservoir (Corning, item #4870) • 6. 50 ml conical sterile polypropylene centrifuge tube (Thermo Fisher, item #339653) • 7. Automatic cell counter (Thermo Fisher, item #AMQAX1000) • 8. CellTiter-Glo Luminescent Cell Viability Detection Reagent (Promega, item #G7572) • 9. SpectraMax i3x Multi-Mode Enzyme Labeling Instrument (Megaman Molecular Instruments, item #5024062) • C. Experimental method • 1. Resuspending the cells with a pipette. • 2. 0.4% Taipan blue staining solution and Toledo cells were mixed in equal proportion, and the cells were counted using an automatic cell counter. • 3. Toledo cells were diluted to a final concentration of 2000 cells per well and transferred to a 50 ml reagent reservoir. • 4. Diluted Toledo cells were added to a 384-well cell culture plate, 40 ul per well. • 5. The cells were shortly centrifuged and settled. • 6. The cells were incubated in a 37° C., 5% CO2 cell culture incubator. • 7. The substrate in the CellTiter-Glo Luminescent Cell Viability Detection Reagent was mixed with the solution. • 8. After six days, the 384-well cell culture plate was taken from the incubator and 20 ul of configured CellTiter-Glo reagent was added to each well. • 9. 384-well cell culture platewasmixed in an orbital shaker for 30 minutes. • 10. Signal of luminescence was detected with a SpectraMax i3x multi-mode enzyme labeling instrument.

PRMT1, sequence (Q99873 whole entry): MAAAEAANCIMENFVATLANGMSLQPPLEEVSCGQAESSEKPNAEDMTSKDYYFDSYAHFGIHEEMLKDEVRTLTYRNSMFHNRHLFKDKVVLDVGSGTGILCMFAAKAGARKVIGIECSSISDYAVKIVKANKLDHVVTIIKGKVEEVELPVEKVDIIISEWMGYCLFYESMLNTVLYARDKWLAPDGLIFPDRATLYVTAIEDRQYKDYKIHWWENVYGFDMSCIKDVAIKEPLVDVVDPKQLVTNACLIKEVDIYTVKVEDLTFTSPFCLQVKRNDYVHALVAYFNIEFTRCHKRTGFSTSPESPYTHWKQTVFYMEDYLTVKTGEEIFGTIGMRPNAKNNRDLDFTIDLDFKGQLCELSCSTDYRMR

Consider `CNCCN(C)Cc1ncccc1C1CCN(Cc2ccccc2)CC1` [P090], for which the IC50 against PRMT1 was under 50 nM; in the assay on Toledo cells, under 1000 nM.

`CNCCN(C)Cc1ncccc1C1CCN(c2cccc(CN(C)C)c2)CC1` [P092]: the IC50 was under 50 nM at PRMT1 and under 1000 nM in the assay on Toledo cells.

Turning to `CNCCN(C)Cc1nc(C)ccc1N1CCc2cc(F)c(F)cc2CC1` [P093], the IC50 on PRMT1 is under 50 nM; in the assay with Toledo cells, under 1000 nM.

As for `CNCCN(C)Cc1ncccc1C1CCN(c2ccc(C)cc2)CC1` [P096], the IC50 against PRMT1 was under 50 nM; in the assay with Toledo cells, 1000 to 5000 nM.

`CNCCN(C)Cc1ccncc1C1CCN(c2cccc(C)c2)CC1` [P097]: the IC50 against PRMT1 was under 50 nM; with Toledo cells it was 1000 to 5000 nM.

On to `CNCCN(C)Cc1ccc(N(C)C)nc1C1CCN(c2cccc(C)c2)CC1` [P098], for which the figures for the IC50 against PRMT1 and in the assay on Toledo cells were under 50 nM and under 1000 nM, respectively.

On to `CNCCN(C)Cc1ccc(C)nc1C1CCN(c2cccc(N(C)C)c2)CC1` [P099], for which the figures for the 50% inhibitory concentration (IC50) on PRMT1 and with Toledo cells were under 50 nM and 1000 to 5000 nM, respectively.

Take `CNCCN(C)Cc1cc(C(=O)N(C)C)ccc1C1CCN(c2cccc(C)c2)CC1` [P100]: the half-maximal inhibitory concentration (IC50) was at least 500 nM against PRMT1 and at least 5000 nM in the assay with Toledo cells.

On to `CNCCN(C)Cc1ccc(C(=O)N(C)C)cc1C1CCN(c2cccc(C)c2)CC1` [P101], for which the half-maximal inhibitory concentration (IC50) was 50 to 500 nM on PRMT1 and 1000 to 5000 nM with Toledo cells.

As to `CNCCN(C)Cc1ncccc1C1CCN(c2cccc(F)c2)CC1` [P102], the IC50 against PRMT1 was under 50 nM; in the assay with Toledo cells, under 1000 nM.

For `CNCCN(C)Cc1ccc2nn(C)cc2c1C1CCc2cc(F)c(F)cc2CC1` [P104], the IC50 against PRMT1 was under 50 nM; in the assay with Toledo cells it was under 1000 nM.

As for `CNCCN(C)Cc1ccc(C(C)N)cc1C1CCN(c2cccc(C)c2)CC1` (stereo not drawn) [P105], the IC50 on PRMT1 is under 50 nM; in the assay on Toledo cells, under 1000 nM.

Consider `CNCCN(C)Cc1ncccc1C1CCN(c2ccccc2)CC1` [P108], for which the IC50 against PRMT1 was under 50 nM; in the assay with Toledo cells, under 1000 nM.

Take `CNCCN(C)Cc1nc(C)ccc1N1CCc2ccccc2CC1` [P109]: the half-inhibitory concentration (IC50) is under 50 nM on PRMT1 and under 1000 nM in the assay on Toledo cells.

With `CNCCN(C)Cc1ccc(C)nc1N1CCc2ccccc2CC1` [P110, N1-((2-(4,5-dihydro-1H-benzo[d]azepin-3(2H)-yl)-6-methylpyridin-3-yl)methyl)-N1,N2-dimethylethane-1,2-diamine], the IC50 was under 50 nM against PRMT1 and under 1000 nM with Toledo cells.

As to `CCOCC1(COCC)CC=C(c2c(C)cccc2CN(C)CCNC)CC1` [P111], the IC50 on PRMT1 was under 50 nM; in the assay with Toledo cells, under 1000 nM.

Regarding `CNCCN(C)Cc1ncccc1C1CCN(CC(C)C)CC1` [P113], the values for the IC50 against PRMT1 and in the assay with Toledo cells were under 50 nM and under 1000 nM, respectively.

For the compound `CNCCN(C)Cc1ccc(C)nc1N1CCN(c2cccc(C)c2)CC1` [P116], the IC50 was under 50 nM against PRMT1 and 1000 to 5000 nM in the assay on Toledo cells.

Regarding `CCOCC1(COCC)CC=C(c2ccccc2CN(C)CCNC)CC1` [P117], the half-inhibitory concentration (IC50) on PRMT1 was under 50 nM; with Toledo cells, under 1000 nM.

As for `CNCCN(C)Cc1ncccc1N1CC2CC(C1)c1ccccc12` [P119], the IC50 against PRMT1 is at least 500 nM; in the assay with Toledo cells it was 1000 to 5000 nM.

As to `CNCCN(C)Cc1ncccc1C1CCN(CC(F)(F)F)CC1` [P120], the IC50 against PRMT1 is under 50 nM; in the assay with Toledo cells, 1000 to 5000 nM.

On to `CCOCC1(COCC)CCN(c2c(Br)cccc2CN(C)CCNC)CC1` [P123], for which the IC50 against PRMT1 was under 50 nM; in the assay on Toledo cells, 1000 to 5000 nM.

For `CNCCN(C)Cc1ncccc1N1CCC(N2CCN(C(C)C)CC2)CC1` [P124], the IC50 at PRMT1 was at least 500 nM; with Toledo cells it was 1000 to 5000 nM.

Regarding `CNCCN(C)Cc1ncccc1C1CCCCC1` [P125], the IC50 on PRMT1 was under 50 nM; in the assay on Toledo cells, under 1000 nM.

With `CNCCN(C)Cc1ncccc1N1CCC(N2CCCCC2)CC1` [P126], the IC50 against PRMT1 was under 50 nM; in the assay with Toledo cells, 1000 to 5000 nM.

For the compound `CNCCN(C)Cc1ncccc1N1CCc2ccccc2C1` [P127], the IC50 on PRMT1 is under 50 nM; in the assay on Toledo cells, 1000 to 5000 nM.

Turning to `CNCCN(C)Cc1ncccc1N1CCCc2ccccc21` [P128], the IC50 at PRMT1 is at least 500 nM; in the assay with Toledo cells, at least 5000 nM.

Consider `CNCCN(C)Cc1ccc(F)cc1C1CCc2nc3ccccc3nc2CC1` [P132], for which the results for the IC50 against PRMT1 and in the assay with Toledo cells were under 50 nM and under 1000 nM, respectively.

`CNCCN(C)Cc1ncccc1C1CCN(c2ccc(-c3ccncc3)cc2)CC1` [P133]: the IC50 at PRMT1 is under 50 nM; in the assay on Toledo cells, under 1000 nM.

In the case of `CCOCc1cccc(N2CCC(c3cccnc3CN(C)CCNC)CC2)c1` [P134], the values for the IC50 against PRMT1 and in the assay on Toledo cells were under 50 nM and 1000 to 5000 nM, respectively.

Take `CNCCN(C)Cc1ccc(-c2cn[nH]c2)cc1C1CCc2cc(F)c(F)cc2CC1` [P135]: the IC50 was under 50 nM against PRMT1 and under 1000 nM in the assay on Toledo cells.

In the case of `CNCCN(C)Cc1ccc(CC(=O)NC)cc1C1CCN(c2cccc(C)c2)CC1` [P140], the half-inhibitory concentration (IC50) against PRMT1 is under 50 nM; in the assay on Toledo cells, under 1000 nM.

For the compound `CNCCN(C)Cc1ncccc1N1CCC(Oc2cc(C)ccc2Cl)CC1` [P144], the IC50 at PRMT1 was under 50 nM; with Toledo cells, under 1000 nM.

`CNCCN(C)Cc1ncccc1N1CCCCCC1` [P145]: the IC50 was under 50 nM against PRMT1 and 1000 to 5000 nM with Toledo cells.

For `CNCCN(C)Cc1ccc2[nH]nc(C)c2c1C1CCc2cc(F)c(F)cc2CC1` [P146, N1-((4-(2,3-difluoro-6,7,8,9-tetrahydro-5H-benzo[7]cyclopenten-7-yl)-3-methyl-1H-indazol-5-yl)methyl)-N1,N2-dimethylethane-1,2-diamine], the IC50 is under 50 nM against PRMT1 and under 1000 nM with Toledo cells.

In the case of `CNCCN(C)Cc1ccc(F)cc1C1CCN(c2nc(C)cc(N3CCCC3)n2)CC1` [P151], the IC50 on PRMT1 was under 50 nM; with Toledo cells it was 1000 to 5000 nM.

Take `CNCCN(C)Cc1ccc2c(c1C1CCN(c3cccc(C)c3)CC1)CCC(=O)N2` [P155]: the IC50 against PRMT1 was under 50 nM; in the assay on Toledo cells, under 1000 nM.

As for `CNCCN(C)Cc1cc(C(=O)NC)ccc1C1CCN(c2cccc(C)c2)CC1` [P159], the values for the IC50 on PRMT1 and with Toledo cells were at least 500 nM and at least 5000 nM, respectively.

For `CNCCN(C)Cc1ccc(C(=O)NC)cc1C1CCN(c2cccc(C)c2)CC1` [P160], the IC50 at PRMT1 was under 50 nM; in the assay on Toledo cells, under 1000 nM.

`CNCCN(C)Cc1ncccc1N1CCN(C(C)C)CC1` [P161]: the 50% inhibitory concentration (IC50) against PRMT1 is under 50 nM; with Toledo cells it was under 1000 nM.

Turning to `CNCCN(C)Cc1ccc(C)nc1C1CCN(c2cccc(NC)c2)CC1` [P162], the IC50 on PRMT1 was 50 to 500 nM; in the assay with Toledo cells, under 1000 nM.

On to `CNCCN(C)Cc1ncccc1C1CCN(c2ccc3c(c2)CCO3)CC1` [P163], for which the IC50 against PRMT1 is under 50 nM; with Toledo cells it was under 1000 nM.

`CNCCN(C)Cc1ncccc1C1CCN(c2cccc3c2OCC3)CC1` [P164]: the IC50 against PRMT1 is under 50 nM; in the assay with Toledo cells it was 1000 to 5000 nM.

`CNCCN(C)Cc1ncccc1N1CCC(OCc2ccccc2)CC1` [P166]: the IC50 is under 50 nM against PRMT1 and under 1000 nM in the assay on Toledo cells.

For `CNCCN(C)Cc1ncccc1C1CCN(c2ccc(OC)cc2)CC1` [P168], the values for the IC50 on PRMT1 and in the assay on Toledo cells were under 50 nM and 1000 to 5000 nM, respectively.

Broadly, the IC50 is the concentration that inhibits the measured activity by half.
